Source: US20230150986A1, “ANTAGONISTS OF THE MUSCARINIC ACETYLCHOLINE RECEPTOR M4” (Vanderbilt University, priority 2019, published 2023)
Read-outs that look alike come from different tables or passages of the source.

Key:
Human M4 = molecular target: T1, Human M4 (Homo sapiens, UniProt P08173); assay: mAChR M4 cell-based functional assay (calcium flux, decrease of EC80 acetylcholine response); conditions: for Human M4 Emin: % ACh maximum at 30 μM; for IC50: CHO-K1 cells with human M4 and Gqi5, EC80 acetylcholine
T1 construct: Human or rat M4 cDNA, along with the chimeric G protein Gq,5, were transfected into Chinese hamster ovary (CHO-K1) cells; expressed in transfected cells; host or cells: CHO-K1 (M4/Gqi5/CHO)
T1 sequence (P08173 1-479): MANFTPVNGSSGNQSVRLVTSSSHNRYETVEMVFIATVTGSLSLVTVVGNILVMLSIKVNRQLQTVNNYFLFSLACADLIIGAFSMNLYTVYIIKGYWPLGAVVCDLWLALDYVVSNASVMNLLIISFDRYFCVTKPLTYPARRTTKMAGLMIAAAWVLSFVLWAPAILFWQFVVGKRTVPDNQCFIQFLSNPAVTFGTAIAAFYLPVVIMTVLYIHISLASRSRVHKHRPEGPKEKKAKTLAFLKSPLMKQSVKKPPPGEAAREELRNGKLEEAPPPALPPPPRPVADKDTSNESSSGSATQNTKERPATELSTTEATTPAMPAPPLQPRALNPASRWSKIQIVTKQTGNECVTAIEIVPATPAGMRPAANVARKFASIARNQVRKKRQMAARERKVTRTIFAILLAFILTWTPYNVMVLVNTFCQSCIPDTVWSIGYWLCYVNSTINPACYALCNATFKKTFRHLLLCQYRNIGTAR
How it was run: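 CHO-K1 cells stably co-expressing M4 with chimeric Gqi5, loaded with Fluo-4 AM for 50 min at 37 °C; compounds added as 10-point 1:3 curves, then acetylcholine at EC20 (143 s) and EC80 (268 s). Calcium read by FDSS fluorescence ratio; IC50 from four-parameter fit of decrease in EC80 acetylcholine response.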

cytochrome P450 2D6 = molecular target: T2, cytochrome P450 2D6 (Homo sapiens, UniProt P10635); assay: Cytochrome P450 cocktail inhibition assay, 2D6 (dextromethorphan); type: in vitro ADME; conditions: human liver microsomes 0.1 mg/mL; read-out: CYP Inhibition (2D6)
T2 construct: human liver microsomes (HLM; 0.1 mg/mL); from tissue; host or cells: human liver microsomes
Protocol: (§1) Solutions of substrates for cytochrome P450 enzymes (1A2: Phenacetin, 10 μM; 2C9: Diclofenac, 5 μM; 2D6: Dextromethorphan, 5 μM; 3A4: Midazolam, 2 μM; as a mixture), test compound (VU6028418; multiple concentrations), and the positive control for pan-P450 inhibition (miconazole; multiple concentrations) were prepared. A reaction mixture of assay buffer (100 mM Kpi at pH 7.4), human liver microsomes (HLM; 0.1 mg/mL), and the substrate mixture were aliquoted into a 96-deepwell plate. The test compound and control were then added to the plate such that the final concentration of test compound ranged from 0.1-30 μM (two replicates per concentration). The assay plate was vortexed (briefly) and pre-incubated at 37° C. in an orbital shaker for 15 minutes. The reaction was initiated by addition of NADPH (1 mM, final concentration) and continued for 8 min before it was quenched by acetonitrile (2× volume) containing an LCMS internal standard (carbamazepine, 50 nM). The plate was then centrifuged (4000 rcf, 4° C., 10 min), and the resulting supernatant was diluted with water (1× volume) for LC-MS/MS. Assay samples were analyzed via electrospray ionization on an AB Sciex API-4000 (Foster City, Calif.) triple-quadrupole mass spectrometer coupled to Agilent Technologies 1290 Infinity series pumps (Santa Clara, Calif.), and a Leap Technologies CTC PAL auto -sampler (Carrboro, NC). Analytes were separated by gradient elution on a Phenomenex Kinetex (C18 2.1×50 mm 5 μm) column (Torrance, Calif.) thermostated at 40° C. The HPLC mobile phase A was 0.1% formic acid in water (pH unadjusted), and the mobile phase B was 0.1% formic acid in acetonitrile (pH unadjusted). […] The total run time was 2.5 min and the HPLC flow rate was 0.5 mL/min. The source temperature was set at 500° C. and mass spectral analyses were performed using multiple reaction monitoring (MRM) with mass transitions specific to each substrate's metabolite utilizing a Turbo-Ionspray® source in positive ionization mode (5.0 kV spray voltage). The test compound and control IC50 values for each enzyme were obtained by quantitating the inhibition of metabolite formation for each substrate. A 0 μM test compound (or control) conditions represented 100% enzymatic activity, and the effect of increasing test compound concentrations on enzymatic activity was then calculated from the % of control activity. Inhibition curves were fitted using XLfit 5.2.2 (four-parameter logistic model, equation 201) in order to calculate the concentration that produced half-maximal inhibition (IC50) of each enzyme.

cytochrome P450 2C9 = molecular target: T3, cytochrome P450 2C9 (Homo sapiens, UniProt P11712); assay: Cytochrome P450 cocktail inhibition assay, 2C9 (diclofenac); type: in vitro ADME; conditions: human liver microsomes 0.1 mg/mL; read-out: CYP Inhibition (2C9)
T3 construct: human liver microsomes (HLM; 0.1 mg/mL); from tissue; host or cells: human liver microsomes
Protocol: as §1

cytochrome P450 1A2 = molecular target: T4, cytochrome P450 1A2 (Homo sapiens, UniProt P05177); assay: Cytochrome P450 cocktail inhibition assay, 1A2 (phenacetin); type: in vitro ADME; conditions: human liver microsomes 0.1 mg/mL; read-out: CYP Inhibition (1A2)
T4 construct: human liver microsomes (HLM; 0.1 mg/mL); from tissue; host or cells: human liver microsomes
T4 sequence (P05177 1-516): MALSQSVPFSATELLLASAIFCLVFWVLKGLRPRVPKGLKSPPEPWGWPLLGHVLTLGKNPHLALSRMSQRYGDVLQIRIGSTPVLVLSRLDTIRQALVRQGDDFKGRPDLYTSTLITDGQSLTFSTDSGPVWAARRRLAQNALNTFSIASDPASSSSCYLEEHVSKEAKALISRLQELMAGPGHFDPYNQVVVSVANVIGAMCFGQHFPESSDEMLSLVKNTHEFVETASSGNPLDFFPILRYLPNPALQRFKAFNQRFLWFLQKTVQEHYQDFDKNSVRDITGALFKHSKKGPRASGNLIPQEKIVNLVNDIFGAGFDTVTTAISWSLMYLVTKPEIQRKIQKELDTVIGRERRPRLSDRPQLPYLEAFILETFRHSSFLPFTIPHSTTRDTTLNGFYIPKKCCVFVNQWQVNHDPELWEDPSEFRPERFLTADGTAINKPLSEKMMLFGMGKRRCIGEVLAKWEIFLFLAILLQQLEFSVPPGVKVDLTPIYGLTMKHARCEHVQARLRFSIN
Protocol: as §1

P-gp = molecular target: T5, P-gp (Homo sapiens, UniProt P08183); assay: P-gp efflux in MDR1-MDCK cell monolayers; type: in vitro ADME; conditions: dog, pH 7.4, MDCK-MDR1, 5 μM
T5 construct: expressed in transfected cells; host or cells: MDR1-MDCK
Protocol: MDR1-MDCK cell monolayers were grown to confluence on collagen-coated, microporous membranes in 12-well assay plates. The permeability assay buffer was Hanks' balanced salt solution containing 10 mM HEPES and 15 mM glucose at a pH of 7.4. The buffer in the receiver chamber also contained 1% bovine serum albumin. The dosing solution concentration was 5 μM of test article in the assay buffer. Cell monolayers were dosed on the apical side (A- to -B) or basolateral side (B- to -A) and incubated at 37° C. with 5% CO2 in a humidified incubator. Samples were taken from the donor and receiver chambers at 120 minutes Each determination was performed in duplicate. The flux of lucifer yellow was also measured post-experimentally for each monolayer to ensure no damage was inflicted to the cell monolayers during the flux period. All samples were assayed by LC-MS/MS using electrospray ionization.

cytochrome P450 3A4 = molecular target: T6, cytochrome P450 3A4 (Homo sapiens, UniProt P08684); assay: Cytochrome P450 cocktail inhibition assay, 3A4 (midazolam); type: in vitro ADME; conditions: human liver microsomes 0.1 mg/mL; read-out: CYP Inhibition (3A4)
T6 construct: human liver microsomes (HLM; 0.1 mg/mL); from tissue; host or cells: human liver microsomes
Protocol: as §1

mice = conditions: cited from earlier work

T5 sequence (P08183 whole entry): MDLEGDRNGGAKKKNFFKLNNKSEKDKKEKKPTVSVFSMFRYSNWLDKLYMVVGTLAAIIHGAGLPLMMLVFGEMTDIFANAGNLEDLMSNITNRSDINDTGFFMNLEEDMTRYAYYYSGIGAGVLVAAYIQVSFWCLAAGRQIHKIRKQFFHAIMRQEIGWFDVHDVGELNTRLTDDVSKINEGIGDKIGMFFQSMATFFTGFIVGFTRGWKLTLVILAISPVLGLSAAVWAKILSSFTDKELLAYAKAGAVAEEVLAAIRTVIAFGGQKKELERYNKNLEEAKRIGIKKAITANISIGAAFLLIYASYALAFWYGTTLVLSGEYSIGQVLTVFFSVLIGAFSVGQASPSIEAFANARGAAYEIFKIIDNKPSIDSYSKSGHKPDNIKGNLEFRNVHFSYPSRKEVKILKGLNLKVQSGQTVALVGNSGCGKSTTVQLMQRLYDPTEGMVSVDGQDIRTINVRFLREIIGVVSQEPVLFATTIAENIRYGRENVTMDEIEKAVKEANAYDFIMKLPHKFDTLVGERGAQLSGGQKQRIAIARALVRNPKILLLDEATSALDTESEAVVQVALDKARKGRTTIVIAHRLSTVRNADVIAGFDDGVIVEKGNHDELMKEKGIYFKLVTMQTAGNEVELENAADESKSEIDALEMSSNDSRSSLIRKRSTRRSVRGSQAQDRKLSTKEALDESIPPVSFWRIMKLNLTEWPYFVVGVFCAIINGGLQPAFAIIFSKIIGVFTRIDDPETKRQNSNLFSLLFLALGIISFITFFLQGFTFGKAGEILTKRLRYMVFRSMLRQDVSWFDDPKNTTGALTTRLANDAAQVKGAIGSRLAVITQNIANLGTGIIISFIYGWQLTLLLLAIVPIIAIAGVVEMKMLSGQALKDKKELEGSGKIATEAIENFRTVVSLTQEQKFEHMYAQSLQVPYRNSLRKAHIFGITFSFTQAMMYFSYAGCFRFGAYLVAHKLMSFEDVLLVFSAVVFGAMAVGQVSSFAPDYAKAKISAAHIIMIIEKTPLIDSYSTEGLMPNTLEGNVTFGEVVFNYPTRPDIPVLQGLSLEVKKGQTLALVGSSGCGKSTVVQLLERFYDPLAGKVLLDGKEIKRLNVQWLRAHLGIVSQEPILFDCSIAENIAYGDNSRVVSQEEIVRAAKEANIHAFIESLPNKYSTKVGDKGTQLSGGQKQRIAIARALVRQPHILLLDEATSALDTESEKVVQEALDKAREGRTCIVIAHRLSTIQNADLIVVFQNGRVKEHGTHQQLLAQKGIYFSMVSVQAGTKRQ
T2 sequence (P10635 whole entry): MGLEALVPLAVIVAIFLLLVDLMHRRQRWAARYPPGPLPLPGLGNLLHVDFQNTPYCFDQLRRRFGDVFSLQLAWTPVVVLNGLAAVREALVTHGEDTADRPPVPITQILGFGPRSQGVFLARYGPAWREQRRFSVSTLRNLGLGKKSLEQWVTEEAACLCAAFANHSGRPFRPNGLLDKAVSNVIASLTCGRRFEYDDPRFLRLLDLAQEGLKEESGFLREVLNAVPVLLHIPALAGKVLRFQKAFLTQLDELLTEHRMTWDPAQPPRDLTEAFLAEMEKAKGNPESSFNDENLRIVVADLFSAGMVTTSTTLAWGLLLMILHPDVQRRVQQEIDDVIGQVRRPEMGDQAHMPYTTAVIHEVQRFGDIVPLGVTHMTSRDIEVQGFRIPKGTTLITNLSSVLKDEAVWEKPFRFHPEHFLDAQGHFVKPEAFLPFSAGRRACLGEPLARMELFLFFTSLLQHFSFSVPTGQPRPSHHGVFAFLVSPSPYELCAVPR
T3 sequence (P11712 whole entry): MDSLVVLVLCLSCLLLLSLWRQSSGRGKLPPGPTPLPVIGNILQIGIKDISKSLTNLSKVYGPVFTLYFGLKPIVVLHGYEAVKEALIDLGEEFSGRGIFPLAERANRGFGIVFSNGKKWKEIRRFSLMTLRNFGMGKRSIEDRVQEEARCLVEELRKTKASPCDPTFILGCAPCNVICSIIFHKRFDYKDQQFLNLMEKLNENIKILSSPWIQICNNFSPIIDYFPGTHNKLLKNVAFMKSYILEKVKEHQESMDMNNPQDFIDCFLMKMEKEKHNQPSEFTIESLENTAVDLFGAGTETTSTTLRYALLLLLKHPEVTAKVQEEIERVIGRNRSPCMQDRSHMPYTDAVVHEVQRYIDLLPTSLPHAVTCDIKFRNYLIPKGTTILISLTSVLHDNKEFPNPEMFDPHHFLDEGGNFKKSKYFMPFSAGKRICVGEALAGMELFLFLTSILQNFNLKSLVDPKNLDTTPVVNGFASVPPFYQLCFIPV
T6 sequence (P08684 whole entry): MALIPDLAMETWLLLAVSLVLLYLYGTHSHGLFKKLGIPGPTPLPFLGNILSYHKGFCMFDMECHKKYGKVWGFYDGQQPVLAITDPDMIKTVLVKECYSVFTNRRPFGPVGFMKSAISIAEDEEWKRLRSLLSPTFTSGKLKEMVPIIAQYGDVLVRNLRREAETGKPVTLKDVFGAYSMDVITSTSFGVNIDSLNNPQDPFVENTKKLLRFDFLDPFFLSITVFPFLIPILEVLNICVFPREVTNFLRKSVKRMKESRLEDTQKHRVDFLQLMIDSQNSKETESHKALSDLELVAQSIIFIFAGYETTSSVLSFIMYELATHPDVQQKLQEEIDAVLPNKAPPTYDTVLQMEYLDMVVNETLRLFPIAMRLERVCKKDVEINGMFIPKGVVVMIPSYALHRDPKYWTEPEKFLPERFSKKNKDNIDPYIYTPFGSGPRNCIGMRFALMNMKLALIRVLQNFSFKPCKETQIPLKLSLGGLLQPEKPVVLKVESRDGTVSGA

Human M4 Emin (Human M4)	IC50 (Human M4)	Compound	other results
2%	62 nM	CC1(C)CC(CN2C[C@H]3C[C@H](Nc4ccc(-c5cc(F)cc(F)c5F)nn4)C[C@H]3C2)CC(C)(C)O1 [Compound 82, (3aR,5s,6aS)-2-((2,2,6,6-tetramethyltetrahydro-2H-pyran-4-yl)methyl)-N-(6-(2,3,5-trifluorophenyl)pyridazin-3-yl)octahydrocyclopenta[c]pyrrol-5-amine]	–
3%	56 nM	[2H]C([2H])(C1CC(C)(C)OC(C)(C)C1)N1C[C@H]2C[C@H](Nc3ccc(-c4cc(F)cc(F)c4F)nn3)C[C@H]2C1 [Compound 83, (3aR,5s,6aS)-2-((2,2,6,6-tetramethyltetrahydro-2H-pyran-4-yl)methyl-d2)-N-(6-(2,3,5-trifluorophenyl)pyridazin-3-yl)octahydrocyclopenta[c]pyrrol-5-amine]	–
4%	72 nM	Fc1cc(F)c(F)c(-c2ccc(N[C@H]3C[C@@H]4CN(CCC5COC5)C[C@@H]4C3)nn2)c1 [Compound 84, (3aR,5s,6aS)-2-(2-(oxetan-3-yl)ethyl)-N-(6-(2,3,5-trifluorophenyl)pyridazin-3-yl)octahydrocyclopenta[c]pyrrol-5-amine]	–
4%	66 nM	[2H]C([2H])(CC1COC1)N1C[C@H]2C[C@H](Nc3ccc(-c4cc(F)cc(F)c4F)nn3)C[C@H]2C1 [Compound 85, (3aR,5s,6aS)-2-(2-(oxetan-3-yl)ethyl-1,1-d2)-N-(6-(2,3,5-trifluorophenyl)pyridazin-3-yl)octahydrocyclopenta[c]pyrrol-5-amine]	–
3%	41 nM	Fc1cc(F)c(F)c(-c2ccc(N[C@H]3C[C@@H]4CN(CC5(F)CCCCC5)C[C@@H]4C3)nn2)c1 [Compound 87, (3aR,5s,6aS)-2-((1-fluorocyclohexyl)methyl)-N-(6-(2,3,5-trifluorophenyl)pyridazin-3-yl)octahydrocyclopenta[c]pyrrol-5-amine]	–
3%	170 nM	Fc1cc(F)c(F)c(-c2ccc(N[C@H]3C[C@@H]4CN(Cc5ccccc5F)C[C@@H]4C3)nn2)c1 [Compound 89, (3aR,55,6aS)-2-(2-fluorobenzyl)-N-(6-(2,3,5-trifluoropheny)pyridazin-3-yl)octahydrocyclopenta[c]pyrrol-5-amine]	–
10%	960 nM	Fc1cc(F)c(F)c(-c2ccc(N[C@H]3C[C@@H]4CN(Cc5cccc(F)c5F)C[C@@H]4C3)nn2)c1 [Compound 90, (3aR,5s,6aS)-2-(2,3-difluorobenzyl)-N-(6-(2,3,5-trifluorophenyl)pyridazin-3-yl)octahydrocyclopenta[c]pyrrol-5-amine]	–
4%	360 nM	Fc1ccc(CN2C[C@H]3C[C@H](Nc4ccc(-c5cc(F)cc(F)c5F)nn4)C[C@H]3C2)c(F)c1 [Compound 91, (3aR,5s,6aS)-2-(2,4-difluorobenzyl)-N-(6-(2,3,5-trifluorophenyl)pyridazin-3-yl)octahydrocyclopenta[c]pyrrol-5-amine]	–
7%	750 nM	[2H]C([2H])(c1c(F)cccc1F)N1C[C@H]2C[C@H](Nc3ccc(-c4cc(F)cc(F)c4F)nn3)C[C@H]2C1 [Compound 92, (3aR,5s,6aS)-2-((2,6-difluorophenyl)methyl-d2)-N-(6-(2,3,5-trifluorophenyl)pyridazin-3-yl)octahydrocyclopenta[c]pyrrol-5-amine]	–
3%	3.9 nM	[2H]C([2H])(C1CCOCC1(F)F)N1C[C@H]2C[C@H](Nc3ccc(-c4cc(F)cc(F)c4F)nn3)C[C@H]2C1 (stereo partly drawn) [Compound 93, (3aR,5s,6aS)-2-((3,3-difluorotetrahydro-2H-pyran-4-yl)methyl-d2)-N-(6-(2,3,5-trifluorophenyl)pyridazin-3-yl)octahydrocyclopenta[c]pyrrol-5-amine]	–
–	–	Fc1ccc(Cl)c(-c2ccc(N[C@H]3C[C@@H]4CN(CC5CCOCC5)C[C@@H]4C3)nn2)c1 [reference compound]	IC50 (cytochrome P450 2D6): 5.3 µM; IC50 (cytochrome P450 2C9): 0.15 µM; IC50 (cytochrome P450 1A2): 1100 nM; efflux ratio at 120 min, 5 μM (P-gp): 14; IC50 (cytochrome P450 3A4): 0.97 µM
–	–	Fc1ccc(Cl)c(-c2ccc(N[C@H]3C[C@@H]4CN(Cc5ccccn5)C[C@@H]4C3)nn2)c1 [reference compound]	IC50 (cytochrome P450 2D6): > 30 µM; IC50 (cytochrome P450 2C9): 10.3 µM; IC50 (cytochrome P450 1A2): > 30000 nM; efflux ratio at 120 min, 5 μM (P-gp): 12.3; IC50 (cytochrome P450 3A4): 21.7 µM
–	–	CN1[C@@H]2C[C@@H](OC(=O)[C@H](CO)c3ccccc3)C[C@H]1[C@@H]1O[C@@H]12 [scopolamine]	effect on catalepsy induced by haloperidol (mice; M4 KO mice): ineffective; effect on catalepsy induced by haloperidol (mice; WT mice): completely reversed
